The source made the active and inactive calls. The rule behind the calls is not given here.
What was measured:
[1] = system: Staphylococcus aureus; assay: Antibacterial activity against Staphylococcus aureus Sau 16339 at 0.005 to 1 mg/ml by agar diffusion assay; format: functional, organism-based; details: dose 0.005-1 mg/ml
[2] = system: Micrococcus luteus; assay: Antibacterial activity against Micrococcus luteus at 0.005 to 1 mg/ml by agar diffusion assay; format: functional, organism-based; details: dose 0.005-1 mg/ml
[3] = system: Micrococcus luteus; assay: Antibacterial activity against Micrococcus luteus assessed as inhibition zone at 0.5 mg/ml by agar diffusion assay; format: functional; details: read-out: IZ
[4] = system: Staphylococcus aureus; assay: Antibacterial activity against Staphylococcus aureus Sau 16339 assessed as inhibition zone at 0.5 mg/ml by agar diffusion assay; format: functional; details: read-out: IZ

Row | SMILES | Activity [1] | Activity [2] | zone of inhibition at 500 µg/mL [3] [mm] | zone of inhibition at 500 µg/mL [4] [mm]
1 | COC(=O)/C=C/C(C)=C/C=C/C(C)=C/C=C/c1ccccc1 | inactive | inactive |  | 
2 | CC(/C=C/C=C/C=C/C(=O)N[C@@H]1O[C@H](CO)[C@@H](O)[C@H](O[C@@H]2O[C@H](CO)[C@@H](O)[C@H](O[C@@H]3O[C@H](CO[C@@H]4O[C@H](CO)[C@@H](O)[C@H](O)[C@H]4O)[C@@H](O)[C@H](O)[C@H]3O)[C@H]2O)[C@H]1O)=C\C=C\c1ccccc1 | inactive |  | 3 | 
3 | CN(C)[C@@H]1C(O)=C(C(N)=O)C(=O)[C@@]2(O)C(O)=C3C(=O)c4c(O)cccc4[C@@](C)(O)[C@H]3C[C@@H]12 [TETRACYCLINE] |  |  | 15 | 12
4 | CC(/C=C/C=C(C)/C=C/C(=O)N[C@@H]1O[C@H](CO)[C@@H](O)[C@H](O[C@@H]2O[C@H](CO)[C@@H](O)[C@H](O[C@@H]3O[C@H](CO[C@@H]4O[C@H](CO)[C@@H](O)[C@H](O)[C@H]4O)[C@@H](O)[C@H](O)[C@H]3O)[C@H]2O)[C@H]1O)=C\C=C\c1ccccc1 |  | inactive |  | 4
5 | COC(=O)/C=C/C=C/C=C/C(C)=C/C=C/c1ccccc1 | inactive | inactive |  | 
6 | CC(/C=C/C(=O)N[C@@H]1O[C@H](CO)[C@@H](O)[C@H](O[C@@H]2O[C@H](CO)[C@@H](O)[C@H](O[C@@H]3O[C@H](CO[C@@H]4O[C@H](CO)[C@@H](O)[C@H](O)[C@H]4O)[C@@H](O)[C@H](O)[C@H]3O)[C@H]2O)[C@H]1O)=C\C=C\c1ccccc1 | inactive | inactive |  | 

From ChEMBL document CHEMBL6071166, “Maduraflavacins A-E, Unusual Phenyl Polyene Metabolites Produced by a Rare Marine-Derived Actinomadura sp” (2024)
